The text below walks through data of patent publication US20240109924A1, “IP4-4,6 SUBSTITUTED DERIVATIVE COMPOUNDS” (SANIFIT THERAPEUTICS, S.A., priority 2021, published 2024).

Where a name gives a salt, the structure may show the parent alone.

The test system of one experiment is tissue calcification. Briefly: In vivo tissue calcification (calcium content by ICP-OES) in vitamin D3-induced limb ischemia rat model. The following applies: SD rats, vitamin D3 150,000 IU/kg s.c. D1-D3, 30 mg/kg s.c. daily D1-D5, sacrifice D5; for Inhibition of calcification (%) Femoral: femoral arteries; for Inhibition of calcification (%) Kidney: right kidney. As to the method:
(§1) The effects of compounds 1, 6, 9, 14, 18, 31, and 39 over blood perfusion and tissue calcification after the inception of limb ischemia were tested using a rat model for a duration of 5 days. Limb ischemia was induced to all groups from D1 to D3 excepting the sham group, to which no ischemia was induced. The animals were administered placebo and active agent formulations from D1 to D5. Observations were taken at several points during the treatment from D0 to D5. All animals were weighed every day before treatment. Seventy-two male Sprague Dawley (SD) rats (Envigo Corp., Huntingdon, GB) weighing approximately 150-200 g were used. The rats were fed with a […]® Rod14-H diet ([…] GmbH, Soest, DE). The rats were divided in 9 groups, 8 animals per group, as follows: • Group 1-Control (Sham) • Group 2-Physiological saline solution • Group 3-Compound 1 • Group 4-Compound 6 • Group 5-Compound 9 • Group 6-Compound 14 • Group 7-Compound 18 • Group 8-Compound 31 • Group 9-Compound 39 Limb ischemia was induced in the rats of groups 2-9 by subcutaneous administration of 150,000 IU/kg vitamin D3 (cholecalciferol, Duphafral D3 1000; Zoetis Inc., Parsippany, NJ, US) in physiological saline solution (2 mL/kg) every day during D1 to D3. The rats of group 1 were not administered vitamin D3. The rats in groups 1 and 2 were administered 2 mL/kg of physiological saline solution daily from D1 to D5 via subcutaneous route. The animals in groups 3-9 were administered subcutaneously 30 mg/kg of compounds 1, 6, 9, 14, 18, 31, and 39, respectively, in physiological saline solution (2 mL/kg), every day from D1 to D5. All rats of groups 1-9 were sacrificed on D5 30 minutes after dosing for determining their Ca baseline values. The animals were anesthetized by isoflurane inhalation. The whole aorta, carotids, femoral arteries, heart, and right kidney of the subjects were collected for calcium content measurement. The tissues were lyophilized for 48-72 h and weighed. The lyophilized tissues were then digested using a 1:1 HNO3:HClO4 mixture in a dry bath incubator for 2-4 h at 180° C. The digested tissues were subsequently diluted using ultra-pure MilliQ® water (MilliporeSigma (Merck KGaA), Burlington, MA, US) to a final volume of 5 mL (i.e., for femoral arteries and carotids) of 10 mL (i.e., for heart, kidneys, and aorta). Calcium content was quantified via inductively coupled plasma optical emission spectrometry (ICP-OES) using an Optima 7300 DV ICP-OES System spectrometer (PerkinElmer, Inc., Waltham, MA, US) according to the manufacturer's instructions. Average blood perfusion recovery compared to vehicle and sham were also calculated. Recovery for sham was 100%. Blood perfusion recovery calculated was using the following equation: 100-((BP sham-BP new drug)/(BP sham-BP vehicle)*100).

A further experiment has as its system blood perfusion. The experiment is described as follows: In vivo blood perfusion (laser doppler perfusion imaging) in vitamin D3-induced limb ischemia rat model. The following applies: average blood perfusion recovery vs vehicle and sham (sham 100%), SD rats, 30 mg/kg s.c. daily D1-D5. As to the method:
as §1, with “to D5. Limb functional and ischemia status were evaluated by using a laser doppler perfusion imaging apparatus PeriCam PSI Normal Resolution (Perimed AB, Järfälla, SE) in all groups at D0 and D5. The perfusion difference and perfusion ratio were calculated by comparing the baseline and either D0 or D5 readings for each group. In addition, the blood perfusion ratio of each treatment group (i.e., groups 2 to 9) to sham group was also calculated. All rats” for “to D5. All rats”

Experiment [1] can be described thus: In vitro inhibition of calcium phosphate crystallization in human plasma (spectrophotometric assay). The experiment is classed as biochemical. The following applies: 0-100 μM, 1.5 mM phosphate, 12.5 mM calcium, pH 7.4, absorbance 550 nm, slope 6-24 min, read-out: Relative Potency. As to the method:
The in vitro efficacy of the IP4-4,6 substituted derivatives (e.g., Compounds 1 to 53) of the invention on the inhibition of calcium phosphate crystallization in human plasma samples was evaluated according to a spectrophotometric assay previously described in the art (Ferrer M, et al., Sci Rep 2017; 7:6858, doi:10.1038/s41598-017-07203-x).
A 96-well plate was employed. Plasma was spiked (1 volume of the IP4-4,6 substituted derivatives of the invention per 19 volumes of plasma) with increasing concentrations of the derivatives in the range of 0-100 μM. Plasma was then centrifuged at 10,000 g at rt and subsequently mixed with a mixture of 5 mM hydrogen phosphate and 41.67 mM calcium to attain final concentrations of 1.5 mM phosphate and 12.5 mM calcium, respectively. All reagent solutions were filtered, and pH adjusted to 7.4.
Crystallization of calcium phosphate was monitored spectrophotometrically for 30 min at rt by measuring the increments in absorbance at 550 nm using the Biotek Powerwave XS Microplate spectrophotometer (BioTek Instruments, Inc., Winooski, VT, US). The plate was incubated at rt in an orbital shaker and absorbance measured every 3 min.
Plasma crystallization was assessed based on slope measurement in the linear range between 6 and 24 min from plots of increase in absorbance versus logarithm of time. The efficacy of different myo-inositol phosphates derivatives in preventing in vitro formation of calcium phosphate crystals was assessed in human plasma samples using the slopes obtained between 6- and 24-min. Inhibition of crystallization was measured by comparing the slopes of the control sample (blank plasma) with those of samples containing the inhibitor as shown below: […]

Turning to `NCCCCCO[C@@H]1[C@@H](OP(=O)([O-])[O-])[C@H](OCCCCCN)[C@@H](OP(=O)([O-])[O-])[C@@H](OP(=O)([O-])[O-])[C@H]1OP(=O)([O-])[O-].[Na+].[Na+].[Na+].[Na+].[Na+].[Na+].[Na+].[Na+]` [Compound 14, 4,6-O-bis(5-aminopentyl)-myo-inositol-1,2,3,5-tetrakis(phosphate) octasodium salt], in the experiment on tissue calcification, the “Inhibition of calcification (%) Aorta” value is reported as “Under (Average inhibition percentage over or under 25% inhibition of calcification.)”, the “Inhibition of calcification (%) Carotid” value is on record as “Under (Average inhibition percentage over or under 25% inhibition of calcification.)”, the “Inhibition of calcification (%) Femoral” value is “Over (Average inhibition percentage over or under 25% inhibition of calcification.)” and the “Inhibition of calcification (%) Heart” value was “Over (Average inhibition percentage over or under 25% inhibition of calcification.)”. For the same compound, the “Inhibition of calcification (%) Kidney” value in the experiment with tissue calcification was “Over (Average inhibition percentage over or under 25% inhibition of calcification.)”. Besides, the “BP recovery (%)” value with blood perfusion is on record as “Over (Average blood perfusion recovery over or under 25%.)”. The EC50 in experiment [1] is ≤ 5 µM.
Regarding `COCc1cn(CCCCCCO[C@@H]2[C@@H](OP(=O)([O-])[O-])[C@H](OCCCCCCn3cc(COC)nn3)[C@@H](OP(=O)([O-])[O-])[C@@H](OP(=O)([O-])[O-])[C@H]2OP(=O)([O-])[O-])nn1.[Na+].[Na+].[Na+].[Na+].[Na+].[Na+].[Na+].[Na+]` [Compound 39, 4,6-O-bis(6-(4-(methoxymethyl)-1H-1,2,3-triazol-1-yl)hexyl)-myo-inositol-1,2,3,5-tetrakis(phosphate) octasodium salt], in the experiment on tissue calcification, the “Inhibition of calcification (%) Aorta” value is given as “Over (Average inhibition percentage over or under 25% inhibition of calcification.)”, the “Inhibition of calcification (%) Carotid” value is reported as “Under (Average inhibition percentage over or under 25% inhibition of calcification.)”, the “Inhibition of calcification (%) Femoral” value is given as “Over (Average inhibition percentage over or under 25% inhibition of calcification.)” and the “Inhibition of calcification (%) Heart” value was “Over (Average inhibition percentage over or under 25% inhibition of calcification.)”. Also, in the experiment on tissue calcification, the “Inhibition of calcification (%) Kidney” value is “Over (Average inhibition percentage over or under 25% inhibition of calcification.)”. In addition, in the experiment with blood perfusion, the “BP recovery (%)” value is “Over (Average blood perfusion recovery over or under 25%.)”. Also, in experiment [1], the EC50 is ≤ 5 µM.
On to `O=P(O)(O)OC1C(OCCCCCn2cncn2)C(OP(=O)(O)O)C(OP(=O)(O)O)C(OP(=O)(O)O)C1OCCCCCn1cncn1` (centres unmarked) [Compound 17, 4,6-O-bis(5-(1H-1,2,4-triazol-1-yl)pentyl)-myo-inositol-1,2,3,5-tetrakis(phosphate) octasodium salt], for which the EC50 in experiment [1] was > 10 µM.
Consider `COCCCCCCCCCOC1C(OP(=O)(O)O)C(OCCCCCCCCCOC)C(OP(=O)(O)O)C(OP(=O)(O)O)C1OP(=O)(O)O` (centres unmarked) [Compound 12, 4,6-O-bis(9-methoxynonyl)-myo-inositol-1,2,3,5-tetrakis(phosphate) octasodium salt], for which the EC50 in experiment [1] is > 10 µM.
Turning to `CCCCCCCCCCOC1C(OP(=O)(O)O)C(OCCCCCCCCCC)C(OP(=O)(O)O)C(OP(=O)(O)O)C1OP(=O)(O)O` (centres unmarked) [Compound 2, 4,6-O-didecyl-myo-inositol-1,2,3,5-tetrakis(phosphate) octasodium salt], the EC50 in experiment [1] was > 10 µM.
Same read-out and setting: for `NCCCOC1C(OP(=O)(O)O)C(OCCCN)C(OP(=O)(O)O)C(OP(=O)(O)O)C1OP(=O)(O)O` (centres unmarked) [Compound 13, 4,6-O-bis(3-aminopropyl)-myo-inositol-1,2,3,5-tetrakis(phosphate) octasodium salt] the value was 5 to 10 µM; for `COCCCCCCCOC1C(OP(=O)(O)O)C(OCCCCCCCOC)C(OP(=O)(O)O)C(OP(=O)(O)O)C1OP(=O)(O)O` (centres unmarked) [Compound 11, 4,6-O-bis(7-methoxyheptyl)-myo-inositol-1,2,3,5-tetrakis(phosphate) octasodium salt], > 10 µM; for `NC(=O)CCCOC1C(OP(=O)(O)O)C(OCCCC(N)=O)C(OP(=O)(O)O)C(OP(=O)(O)O)C1OP(=O)(O)O` (centres unmarked) [Compound 26, 4,6-O-bis(4-amino-4-oxobutyl)-myo-inositol-1,2,3,5-tetrakis(phosphate) octasodium salt], ≤ 5 µM.
